Assay results reported in patent publication US8822517B2, “Arylosulfonamides for the treatment of CNS diseases” (Adamed SP. Z O.O., priority 2010, dated 2014).

Assays:
[1] = biological target: T1, serotonine transporter (SERT) receptor (Homo sapiens, UniProt P31645); assay: Binding assay SERT (h), [3H]imipramine, CHO cells; conditions: read-out: SERT [%]
T1 construct: expressed in transfected cells; host or cells: CHO cells
Procedure, shortened: (§1)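 Specific ligand binding was taken as total minus non-specific binding, with the latter defined in the presence of surplus unlabelled ligand. Each compound was tested at a single 1×10^−6 M concentration.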

[2] = tested on: sigma σ receptor; assay: Binding assay σ (non-selective), [3H]DTG, rat cerebral cortex; conditions: percent inhibition of control specific binding; compounds tested at 1×10^−6 M
Protocol: (§2) The specific ligand binding to the receptors is defined as the difference between the total binding and the nonspecific binding determined in the presence of an excess of so unlabelled ligand.
(§3) The specific Ligand binding to the receptor is defined as the difference between total and non-specific binding determined in the presence of an excess of unlabelled ligand. The compounds were tested at a concentration of 1×10^−6 M, and scintillation counting was the method of detection of ligand binding.

[3] = tested on: adrenergic α1 receptor; assay: Binding assay α1 (non-selective), [3H]prazosin, rat cerebral cortex; conditions: percent inhibition of control specific binding; compounds tested at 1×10^−6 M
Procedure, shortened: as §1

[4] = biological target: T2, muscarinic M3 receptor (Homo sapiens, UniProt P20309); assay: Binding assay M3 (h), [3H]4-DAMP, CHO cells; conditions: read-out: M3 [%]
T2 construct: expressed in transfected cells; host or cells: CHO cells
Protocol: as §2, §3

[5] = biological target: T3, serotoninergic receptor 5-HT2C (Homo sapiens, UniProt P28335); assay: Binding assay 5-HT2C (h), [3H]mesulergine, HEK-293 cells; conditions: read-out: 5-HT2C [%]
T3 construct: expressed in transfected cells; host or cells: HEK-293 cells
T3 sequence (P28335 33-458): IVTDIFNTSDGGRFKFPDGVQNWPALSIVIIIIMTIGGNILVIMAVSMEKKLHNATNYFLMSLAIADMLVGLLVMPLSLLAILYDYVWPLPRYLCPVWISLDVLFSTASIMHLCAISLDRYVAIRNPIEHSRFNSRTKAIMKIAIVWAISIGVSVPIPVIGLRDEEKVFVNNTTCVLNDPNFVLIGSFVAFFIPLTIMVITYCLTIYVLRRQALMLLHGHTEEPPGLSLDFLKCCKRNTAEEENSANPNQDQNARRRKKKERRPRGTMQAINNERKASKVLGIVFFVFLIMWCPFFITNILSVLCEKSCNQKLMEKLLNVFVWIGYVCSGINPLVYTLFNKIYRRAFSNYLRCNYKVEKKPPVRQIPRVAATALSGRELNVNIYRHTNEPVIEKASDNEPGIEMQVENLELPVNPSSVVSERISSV
Protocol: as §2, §3

[6] = biological target: dopaminergic D3 receptor (Homo sapiens, UniProt P35462); assay: Binding assay D3 (h), [3H]methyl-spiperone, CHO cells; design: expressed in transfected cells; host or cells: CHO cells; conditions: read-out: D3 [%]
Procedure, shortened: as §1

[7] = biological target: serotoninergic 5-HT6 receptor (Homo sapiens, UniProt P50406); assay: Binding assay 5-HT6 (h), [3H]LSD, CHO cells; design: expressed in transfected cells; host or cells: CHO cells; conditions: read-out: 5-HT6
Procedure, shortened: as §1

[8] = biological target: serotoninergic 5-HT7 receptor (Homo sapiens, UniProt P34969); assay: Binding assay 5-HT7 (h), [3H]LSD, CHO cells; design: expressed in transfected cells; host or cells: CHO cells; conditions: read-out: 5-HT7
Procedure, shortened: as §1

[9] = biological target: T4, adrenergic α2C receptor (Homo sapiens, UniProt P18825); assay: Binding assay α2C (h), [3H]RX 821002, CHO cells; design: expressed in transfected cells; host or cells: CHO cells; conditions: read-out: α2C [%]
T4 sequence (P18825 1-462): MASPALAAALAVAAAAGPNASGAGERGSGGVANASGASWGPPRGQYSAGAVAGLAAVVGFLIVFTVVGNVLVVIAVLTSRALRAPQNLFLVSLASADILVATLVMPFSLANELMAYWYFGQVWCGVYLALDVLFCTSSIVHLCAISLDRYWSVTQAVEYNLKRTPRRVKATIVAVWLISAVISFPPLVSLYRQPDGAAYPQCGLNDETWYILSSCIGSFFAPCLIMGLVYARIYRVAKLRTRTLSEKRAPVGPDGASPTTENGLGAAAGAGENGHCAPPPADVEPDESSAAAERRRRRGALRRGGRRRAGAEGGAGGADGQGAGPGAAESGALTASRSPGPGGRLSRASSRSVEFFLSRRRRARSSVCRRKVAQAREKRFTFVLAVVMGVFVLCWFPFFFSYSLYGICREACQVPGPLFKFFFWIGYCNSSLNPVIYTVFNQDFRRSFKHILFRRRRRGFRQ
Protocol: as §2, §3

[10] = biological target: dopaminergic D2 receptor (Homo sapiens, UniProt P14416); assay: Binding assay D2S (h), [3H]methyl-spiperone, HEK-293 cells; design: expressed in transfected cells; host or cells: HEK-293 cells; conditions: read-out: D2 [%]
Procedure, shortened: as §1

[11] = biological target: T5, serotoninergic 5-HT1A receptor (Homo sapiens, UniProt P08908); assay: Binding assay 5-HT1A (h), [3H]8-OH-DPAT, HEK-293 cells; design: expressed in transfected cells; host or cells: HEK-293 cells; conditions: read-out: 5-HT1A
T5 sequence (P08908 1-422): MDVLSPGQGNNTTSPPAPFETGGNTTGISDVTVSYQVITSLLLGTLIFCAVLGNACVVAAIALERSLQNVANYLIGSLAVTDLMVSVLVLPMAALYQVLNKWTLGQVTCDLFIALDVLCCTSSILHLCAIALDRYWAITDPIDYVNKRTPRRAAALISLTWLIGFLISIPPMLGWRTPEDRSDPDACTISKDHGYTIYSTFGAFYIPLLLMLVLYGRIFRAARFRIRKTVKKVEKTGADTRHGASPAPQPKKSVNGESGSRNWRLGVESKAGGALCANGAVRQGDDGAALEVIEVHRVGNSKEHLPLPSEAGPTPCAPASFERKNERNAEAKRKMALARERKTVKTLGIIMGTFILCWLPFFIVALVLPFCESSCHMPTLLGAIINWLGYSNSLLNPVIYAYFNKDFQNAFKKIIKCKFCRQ
Procedure, shortened: as §1

[12] = biological target: serotoninergic 5-HT2A receptor (Homo sapiens, UniProt P28223); assay: Binding assay 5-HT2A (h), [3H]ketanserin, HEK-293 cells; design: expressed in transfected cells; host or cells: HEK-293 cells; conditions: read-out: 5-HT2A
Procedure, shortened: as §1

[13] = biological target: histaminergic H1 receptor (Homo sapiens, UniProt P35367); assay: Binding assay H1 (h), [3H]pyrilamine, HEK-293 cells; design: expressed in transfected cells; host or cells: HEK-293 cells; conditions: read-out: H1 [%]
Protocol: as §2, §3

Sequence of serotoninergic 5-HT6 receptor (P50406 whole entry): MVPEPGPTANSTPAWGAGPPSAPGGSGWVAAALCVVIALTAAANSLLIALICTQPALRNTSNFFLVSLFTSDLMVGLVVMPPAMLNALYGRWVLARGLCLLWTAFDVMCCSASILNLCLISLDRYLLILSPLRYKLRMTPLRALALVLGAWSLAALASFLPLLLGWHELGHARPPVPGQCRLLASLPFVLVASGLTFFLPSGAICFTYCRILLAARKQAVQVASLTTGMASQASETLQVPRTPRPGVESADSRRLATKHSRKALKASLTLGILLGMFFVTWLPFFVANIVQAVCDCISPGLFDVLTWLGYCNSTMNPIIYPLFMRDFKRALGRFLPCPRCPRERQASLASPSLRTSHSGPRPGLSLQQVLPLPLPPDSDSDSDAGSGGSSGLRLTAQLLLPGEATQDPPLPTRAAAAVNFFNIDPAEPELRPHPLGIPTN
Sequence of histaminergic H1 receptor (P35367 whole entry): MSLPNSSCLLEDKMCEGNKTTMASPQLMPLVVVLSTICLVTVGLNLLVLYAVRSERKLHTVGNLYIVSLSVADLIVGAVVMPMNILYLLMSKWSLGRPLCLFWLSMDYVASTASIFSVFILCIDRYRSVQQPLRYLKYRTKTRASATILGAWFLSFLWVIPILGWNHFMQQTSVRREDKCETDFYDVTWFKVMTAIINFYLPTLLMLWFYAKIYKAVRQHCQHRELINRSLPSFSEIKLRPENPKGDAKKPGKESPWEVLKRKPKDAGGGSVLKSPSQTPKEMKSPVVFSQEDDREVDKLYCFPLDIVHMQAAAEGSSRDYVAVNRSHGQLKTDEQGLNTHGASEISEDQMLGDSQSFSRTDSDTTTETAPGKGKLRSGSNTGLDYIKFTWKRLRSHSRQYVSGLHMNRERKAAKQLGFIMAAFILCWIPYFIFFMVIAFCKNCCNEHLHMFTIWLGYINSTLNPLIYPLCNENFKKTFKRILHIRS
Sequence of serotoninergic 5-HT2A receptor (P28223 whole entry): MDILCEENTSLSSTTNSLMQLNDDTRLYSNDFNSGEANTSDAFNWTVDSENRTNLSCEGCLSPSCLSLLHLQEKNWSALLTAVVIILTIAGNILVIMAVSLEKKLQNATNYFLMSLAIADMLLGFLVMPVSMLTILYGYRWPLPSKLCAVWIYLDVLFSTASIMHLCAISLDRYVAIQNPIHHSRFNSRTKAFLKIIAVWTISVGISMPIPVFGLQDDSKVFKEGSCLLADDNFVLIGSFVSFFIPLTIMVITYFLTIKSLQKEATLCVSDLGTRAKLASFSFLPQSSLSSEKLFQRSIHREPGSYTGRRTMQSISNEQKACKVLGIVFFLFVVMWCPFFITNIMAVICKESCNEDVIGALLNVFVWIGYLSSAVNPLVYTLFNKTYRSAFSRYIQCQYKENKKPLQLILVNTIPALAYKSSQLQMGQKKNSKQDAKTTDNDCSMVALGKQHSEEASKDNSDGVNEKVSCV
T2 sequence (P20309 whole entry): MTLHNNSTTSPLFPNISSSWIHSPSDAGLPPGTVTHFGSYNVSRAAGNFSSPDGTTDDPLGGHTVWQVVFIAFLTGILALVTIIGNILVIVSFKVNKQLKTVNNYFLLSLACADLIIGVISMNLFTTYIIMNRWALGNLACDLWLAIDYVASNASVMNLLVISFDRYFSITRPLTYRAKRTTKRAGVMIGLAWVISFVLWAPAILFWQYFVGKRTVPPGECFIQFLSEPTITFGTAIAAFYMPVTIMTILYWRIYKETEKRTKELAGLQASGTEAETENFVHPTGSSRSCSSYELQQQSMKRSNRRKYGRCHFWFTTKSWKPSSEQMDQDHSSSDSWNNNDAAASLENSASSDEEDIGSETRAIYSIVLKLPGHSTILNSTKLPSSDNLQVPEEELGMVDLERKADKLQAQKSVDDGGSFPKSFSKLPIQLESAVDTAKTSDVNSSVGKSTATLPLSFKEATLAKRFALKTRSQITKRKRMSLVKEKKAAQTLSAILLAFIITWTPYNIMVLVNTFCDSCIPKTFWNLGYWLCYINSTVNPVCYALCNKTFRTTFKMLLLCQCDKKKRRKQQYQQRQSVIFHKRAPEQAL
Sequence of dopaminergic D3 receptor (P35462 whole entry): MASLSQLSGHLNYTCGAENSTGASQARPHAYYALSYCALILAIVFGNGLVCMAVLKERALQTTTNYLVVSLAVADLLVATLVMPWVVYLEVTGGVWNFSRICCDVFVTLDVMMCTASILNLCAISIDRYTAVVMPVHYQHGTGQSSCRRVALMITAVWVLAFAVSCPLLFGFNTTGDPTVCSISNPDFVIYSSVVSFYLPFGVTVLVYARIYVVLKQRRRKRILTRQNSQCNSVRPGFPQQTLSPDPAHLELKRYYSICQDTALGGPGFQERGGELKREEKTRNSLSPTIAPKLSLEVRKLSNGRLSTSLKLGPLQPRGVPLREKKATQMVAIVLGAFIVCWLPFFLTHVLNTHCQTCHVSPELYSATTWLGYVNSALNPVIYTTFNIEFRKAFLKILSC
Sequence of dopaminergic D2 receptor (P14416 1-414 isoform P14416-2): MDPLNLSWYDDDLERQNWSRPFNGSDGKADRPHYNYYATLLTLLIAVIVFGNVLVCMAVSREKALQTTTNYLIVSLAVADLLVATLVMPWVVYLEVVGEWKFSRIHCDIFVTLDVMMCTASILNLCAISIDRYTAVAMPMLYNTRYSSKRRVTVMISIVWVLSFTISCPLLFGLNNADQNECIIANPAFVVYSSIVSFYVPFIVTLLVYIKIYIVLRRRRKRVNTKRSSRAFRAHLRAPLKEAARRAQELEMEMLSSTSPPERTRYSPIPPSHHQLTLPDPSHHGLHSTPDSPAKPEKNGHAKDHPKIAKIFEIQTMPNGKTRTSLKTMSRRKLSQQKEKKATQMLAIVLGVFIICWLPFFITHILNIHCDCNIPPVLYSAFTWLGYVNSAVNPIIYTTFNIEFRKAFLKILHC
T1 sequence (P31645 whole entry): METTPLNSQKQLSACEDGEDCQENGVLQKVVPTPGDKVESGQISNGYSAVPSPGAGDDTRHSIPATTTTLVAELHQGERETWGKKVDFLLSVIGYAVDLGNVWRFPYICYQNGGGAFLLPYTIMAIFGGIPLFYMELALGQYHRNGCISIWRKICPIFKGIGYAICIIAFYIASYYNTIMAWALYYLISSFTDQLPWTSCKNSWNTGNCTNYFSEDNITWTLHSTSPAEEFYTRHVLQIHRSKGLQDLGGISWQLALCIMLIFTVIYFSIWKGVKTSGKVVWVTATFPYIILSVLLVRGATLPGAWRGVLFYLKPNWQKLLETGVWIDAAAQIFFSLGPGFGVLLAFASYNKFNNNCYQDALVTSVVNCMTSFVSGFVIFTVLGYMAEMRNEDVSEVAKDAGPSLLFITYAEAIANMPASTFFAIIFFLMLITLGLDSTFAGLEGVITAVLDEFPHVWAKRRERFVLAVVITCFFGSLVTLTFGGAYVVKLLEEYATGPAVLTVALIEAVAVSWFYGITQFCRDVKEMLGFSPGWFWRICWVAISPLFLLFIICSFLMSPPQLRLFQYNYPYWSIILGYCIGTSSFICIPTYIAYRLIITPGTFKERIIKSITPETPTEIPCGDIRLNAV
Sequence of serotoninergic 5-HT7 receptor (P34969 whole entry): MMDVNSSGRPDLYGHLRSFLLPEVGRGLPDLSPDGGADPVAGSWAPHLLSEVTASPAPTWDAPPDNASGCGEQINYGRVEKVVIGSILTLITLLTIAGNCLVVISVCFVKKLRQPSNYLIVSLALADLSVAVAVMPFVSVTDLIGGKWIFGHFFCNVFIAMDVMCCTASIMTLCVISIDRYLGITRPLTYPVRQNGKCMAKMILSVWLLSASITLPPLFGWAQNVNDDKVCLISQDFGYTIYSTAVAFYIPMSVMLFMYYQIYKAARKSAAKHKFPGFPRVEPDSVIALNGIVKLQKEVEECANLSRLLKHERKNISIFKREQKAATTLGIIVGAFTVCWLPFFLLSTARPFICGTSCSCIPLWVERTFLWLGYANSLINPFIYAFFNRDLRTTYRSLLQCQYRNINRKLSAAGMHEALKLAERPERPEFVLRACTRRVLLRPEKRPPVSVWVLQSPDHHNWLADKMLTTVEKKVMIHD

Row | SMILES | inhibition at 1 µM [1] | σ [%] [2] | α1 [%] [3] | inhibition at 1 µM [4] | inhibition at 1 µM [5] | inhibition at 1 µM [6] | inhibition at 1 µM [7] | inhibition at 1 µM [8] | inhibition at 1 µM [9] | inhibition at 1 µM [10] | inhibition at 1 µM [11] | inhibition at 1 µM [12] | inhibition at 1 µM [13]
1 | O=c1[nH]c2cccc(N3CCN(CCCNS(=O)(=O)c4cccc(Cl)c4)CC3)c2[nH]1 [Compound 174, 3-Chloro-N-[3-[4-(2-oxo-1,3-dihydrobenzimidazol-4-yl)piperazin-1-yl]propyl]benzenesulphonamide] | 11% | −16% | 86% | 15% | 0% | 96% | 4% | 92% | 55% | 91% | 98% | -24% | 25%
2 | O=c1[nH]c2cccc(N3CCN(CCCNS(=O)(=O)c4cccc(F)c4)CC3)c2[nH]1 [Compound 176, 3-Fluoro-N-[3-[4-(2-oxo-1,3-dihydrobenzimidazol-4-yl)piperazin-1-yl]propyl]benzenesulphonamide] | -3% | −25% | 77% | 6% | 9% | 95% | 29% | 80% | 44% | 89% | 97% | 7% | 8%
3 | O=S(=O)(NCCCN1CCN(c2nsc3ccccc23)CC1)c1ccc(Cl)s1 [Compound 196, N-[3-[4-(1,2-Benzothiazol-3-yl)piperazin-1-yl]propyl]-5-chloro-thiophene-2-sulphonamide] | 75% | 66% | 93% | 18% | 89% | 97% | 92% | 100% | 95% | 98% | 99% | 102% | 93%
4 | O=S(=O)(NCCCCN1CCN(c2nsc3ccccc23)CC1)c1cccc(O)c1 [Compound 231, N-[4-[4-(1,2-Benzothiazol-3-yl)piperazin-1-yl]butyl]-3-hydroxybenzenesulphonamide] | 59% | 62% | 96% | 11% | 87% | 97% | 95% | 99% | 99% | 99% | 97% | 101% | 97%
5 | O=S(=O)(NCCCCN1CCN(c2nsc3ccccc23)CC1)c1cccc2scnc12 [Compound 243, N-[4-[4-(1,2-Benzothiazol-3-yl)piperazin-1-yl]butyl]-1,3-benzothiazole-4-sulphonamide] | 63% | 29% | 97% | 10% | 81% | 93% | 73% | 99% | 96% | 100% | 98% | 100% | 93%
6 | O=S(=O)(NCCCCN1CCN(c2nsc3ccccc23)CC1)c1ccc2c(c1)OCO2 [Compound 245, N-[4-[4-(1,2-Benzothiazol-3-yl)piperazin-1-yl]butyl]-1,3-benzodioxole-5-sulphonamide] | 38% | 52% | 96% | 25% | 72% | 97% | 82% | 98% | 101% | 97% | 99% | 99% | 98%
